Assay [1] relates to primary myeloma cells of patients (CD138+ viable plasma cells). Kind of assay: Mononuclear cell culture of patients' tumor samples, count of viable CD138+ myeloma cells by flow cytometry. The format is cell-based, human. How it is done: Mononuclear cells from tumor samples of 12 patients with MM were cultured for 4 days in the presence of IL-6 (2 ng/ml) with or without graded decitabine concentrations. At day 4 of culture, the cell count and the viability were determined and the percentage of CD138^+ viable plasma cells was determined by flow cytometry. Black color represents patients with high DM Score (N=6) and white represents patients with low DM Score values (N=6).
Mononuclear cells from tumor samples of 14 patients with MM were cultured for 4 days in the presence of IL-6 (2 ng/ml) with or without graded 5-azacitidine concentrations. At day 4 of culture, the count of viable CD138′ MMCs was determined using flow cytometry. The black columns represent the mean±SD of primary myeloma cell counts (expressed as the percentage of the count without adding 5-azcytidine) of the 7 patients with a low DM Score and the white columns that of the 7 patients with a high DM Score.
Mononuclear cells from tumor samples of 12 patients with MM (agreement of the Center for Biological Resources of Montpellier University Hospital (N° DC-2008-417)) were cultured for 4 days at 2×10^5 cells/ml in RPMI 1640 medium, 10% FCS, 2 ng/ml IL-6, with or without graded concentrations of decitabine. In each culture group, viability and cell counts were assayed and MMCs were stained with an anti-CD138-PE mAb (Immunotech, Marseille, France) as previously described (32).
Primary myeloma cells of 14 patients were cultured with or without graded concentrations of 5-azacitidine and MMC cytotoxicity evaluated using anti-CD138-PE mAb (Immunotech, Marseille, France) as described (Jourdan, et al 1998; Mahtouk, et al 2004; Moreaux, et al 2012).

In assay [2] the test system is human myeloma cell lines (HMCLs). Kind of assay: Growth assay for myeloma cells (Cell Titer Glo, 4 days, graded DNMTi concentrations). Type of assay: cell-based. The following applies: for IC50: Homo sapiens, 96 h, 4 days. How it is done:
HMCLs were cultured for 4 days in 96-well flat-bottom microtiter plates in RPMI 1640 medium, 10% FCS, 2 ng/ml IL-6 culture medium (control), with graded decitabine concentrations. Data are mean values plus or minus standard deviation (SD) of 5 experiments determined on sextuplet culture wells.
HMCLs were cultured for 4 days in 96-well flat-bottom microtiter plates in RPMI 1640 medium, 10% FCS, 2 ng/ml IL-6 culture medium (control), and graded 5-azacitidine concentrations. Data are mean values plus or minus standard deviation (SD) of 5 experiments determined on sextuplet culture wells.
HMCLs were cultured for 4 days in 96-well flat-bottom microtiter plates in RPMI 1640 medium, 10% FCS, 2 ng/ml IL-6 culture medium (control), with graded decitabine concentrations. Cell growth was evaluated by quantifying intracellular ATP amount with a Cell Titer Glo Luminescent Assay (Promega, Madison, Wis.) with a Centro LB 960 luminometer (Berthold Technologies, Bad Wildbad, Germany).
The inventors sought to determine whether DM Score could predict for the sensitivity of 10 HMCLs to DNMT inhibitor. Starting from a large cohort of 40 HMCLs (22), the 10 HMCLs with the highest or lowest DM Score were selected to assay decitabine sensitivity.
HMCLs were cultured with graded 5-azacitidine (Sigma, St. Louis, Mo.) concentrations. HMCLs cell growth was quantified with a Cell Titer Glo Luminescent Assay (Promega, Madison, Wis.) and half inhibitory concentration (IC50) was determined using GraphPad Prism (http://www.graphpad.com/scientific-software/prism/).
(In general: In ATP-based viability assays light output follows the ATP content of the culture.)

Each structure is given as a SMILES string. “And” between values parts separate entries of the source, which are not always exact repeats. Equal entries are not always repeated. Where two headings read alike, the source gives them in different places.

As to `Nc1ncn([C@H]2C[C@H](O)[C@@H](CO)O2)c(=O)n1` [decitabine, 5-Aza-2′-deoxycytidine], the “Myeloma cell number/culture well, Mean” value is listed as 54391 in assay [1] (0.125 μM decitabine, day 4, mean of 6 patients with high DM Score); 43748 in assay [1] (0.125 μM decitabine, day 4, mean of 6 patients with low DM Score); 38622 in assay [1] (0.5 μM decitabine, day 4, mean of 6 patients with high DM Score); 38834 in assay [1] (0.5 μM decitabine, day 4, mean of 6 patients with low DM Score); 24024 in assay [1] (2 μM decitabine, day 4, mean of 6 patients with high DM Score); 30672 in assay [1] (2 μM decitabine, day 4, mean of 6 patients with low DM Score). Moreover, the “Myeloma cell number/culture well, Mean” value in assay [1] (8 μM decitabine, day 4, mean of 6 patients with high DM Score) came to 12808; in assay [1] (8 μM decitabine, day 4, mean of 6 patients with low DM Score), 26080. Further, the “Myeloma cell number/culture well” value in assay [1] (0.125 μM decitabine, day 4, single patients with high DM Score) was 43320 and 49096 and 40432 and 63536 and 69312 and 60648; in assay [1] (0.125 μM decitabine, day 4, single patients with low DM Score), 26100 and 51984 and 77976 and 54336 and 1066 and 51024; in assay [1] (0.5 μM decitabine, day 4, single patients with high DM Score) it was 36738 (2×) and 31086 and 28260 and 56520 and 42390; in assay [1] (0.5 μM decitabine, day 4, single patients with low DM Score) it was 27195 and 45216 and 53694 and 51300 and 870 and 54726; in assay [1] (2 μM decitabine, day 4, single patients with high DM Score), 20592 (2×) and 22880 and 18304 and 29744 and 32032; in assay [1] (2 μM decitabine, day 4, single patients with low DM Score) it was 21028 and 32032 and 22880 and 51230 and 1044 and 55818. The “Myeloma cell number/culture well” value in assay [1] (8 μM decitabine, day 4, single patients with high DM Score) is 5800 and 11600 and 10150 and 18850 and 17400 and 13050; in assay [1] (8 μM decitabine, day 4, single patients with low DM Score), 18265 and 21750 and 14500 and 53486 and 1039 and 47440. Also, the “fold higher decitabine sensitivity” value in assay [1] (primary MMCs with DM Score above median (−19.7) versus below median, P<0.01) turned out to be 2.2 fold; in assay [2] (HMCLs with highest DM Score versus low DM Score, P=0.01) it was 11 fold. The concentration for half-maximal inhibition (IC50) is 2920 to 60800 nM in assay [2] (decitabine, 5 HMCLs with low DM Score, read-out: IC50 range); 150 to 2220 nM in assay [2] (read-out: IC50 range, decitabine, 5 HMCLs with the highest DM Score); 7940 nM in assay [2] (read-out: median IC50, decitabine, 5 HMCLs with low DM Score); 680 nM in assay [2] (read-out: median IC50, decitabine, 5 HMCLs with the highest DM Score). The “sensitivity class of HMCLs” value in assay [2] (XG6, XG20, XG13, SKMM2, LP1 (lowest DM Score)) was “Resistant”; in assay [2] (XG12, XG16, XG19, JJN3, RPMI8226 (highest DM Score)) it was “Sensitive”.

As a reminder, the IC50 is the concentration that gives 50% inhibition.

These data come from patent US20150218654A1, “METHODS FOR PREDICTING MULTIPLE MYELOMA TREATMENT RESPONSE” (INSERM (INSTITUT NATIONAL DE LA SANTÉ ET DE LA RE- CHERCHE …, priority 2012, published 2015).
